The assay concerns the target CNS nicotinic receptors. As to the kind of experiment: Binding to relevant receptor sites. The following applies: free base used to prepare the salt forms, stated in words only. How it is done:
Receptor binding constants provide a measure of the ability of the compound to bind to half of the relevant receptor sites of certain brain cells of the patient. See, Cheng, et al., Biochem. Pharmacol. 22:3099 (1973). The (2S)-(4E)-N-methyl-5-[3-(5-isopropoxypyridin)yl]-4-penten-2-amine compound used to prepare the salt forms has extremely high affinity for the relevant receptors, with a binding affinity in the low nM range.
Binding of the compounds to relevant receptor sites was determined in accordance with the techniques described in U.S. Pat. No. 6,953,855 to Mazurov et al. Inhibition constants (Ki values), reported in nM, were calculated from the IC50 values using the method of Cheng et al., Biochem, Pharmacol. 22:3099 (1973).

Each structure is given as a SMILES string.

Turning to `CN[C@@H](C)C/C=C/c1cncc(OC(C)C)c1` [(2S)-(4E)-N-methyl-5-[3-(5-isopropoxypyridin)yl]-4-penten-2-amine], the binding affinity result is “low nM range”.

For the origin of these results see patent US8461344B2, “Polymorph forms of (2S)-(4E)-N-methyl-5-[3-(5-isopropdxypyridin)yl]-4-penten-2-amine” (Targacept, Inc., priority 2006, dated 2013).
